From article PMC6576746, “Rational discovery of dual-indication multi-target PDE/Kinase inhibitor for precision anti-cancer therapy using structural systems pharmacology” (PLoS Computational Biology, 2019)

Legend:
Assay in all cases: cells
Design in all cases: species or system panel of human cancer cell lines; Eurofins OncoPanel proliferation; nuclei count by high-content fluorescence imaging, 10-point dose response
HT-3 = conditions: Homo sapiens, HT-3, 72 h, cell count, 3 days
Description: (§1) OncoPanel cancer cell proliferation assay was performed by Eurofins Panlabs, Inc. (Missouri, USA). Cancer cells were grown in RPMI 1640, 10% FBS, 2 mM L-alanyl-L-glutamine, 1 mM Na pyruvate, or a special medium. Cells were seeded into 384-well plates and incubated in a humidified atmosphere of 5% CO2 at 37°C. Compounds were added the day following cell seeding. At the same time, a time zero untreated cell plate was generated. After a 3-day incubation period, cells were fixed and stained to allow fluorescence imaging of nuclei. Levosimendan was serially diluted in half-log steps from 100 μM and assayed over 10 concentrations with a maximum assay concentration of 0.1% DMSO. Automated fluorescence microscopy was carried out using a Molecular Devices ImageXpress Micro XL high-content imager, and images were collected with a 4X objective. 16-bit TIFF images were acquired and analyzed with MetaXpress 5.1.0.41 software. Cell count EC50 is the test concentration at the curve inflection point (parameter C), or half the effective response. IC50 is the test compound concentration at 50% of the maximum possible response. GI50 is the concentration needed to reduce the observed growth by half (midway between the relative cell count at the curve maximum and at the time of compound addition). Activity area is an estimate of the integrated area above the response curve. Activity area values range from 0–10, where a value of zero indicates no inhibition of proliferation at all concentrations, and a value of 10 indicates complete inhibition of proliferation at all concentrations.

CaOV3 = conditions: Homo sapiens, Caov-3, 72 h, cell count, 3 days
Description: as §1

NCI-H295R = conditions: Homo sapiens, NCI-H295R, 72 h, cell count, 3 days
Description: as §1

SJSA1 = conditions: Homo sapiens, SJSA-1, 72 h, cell count, 3 days
Description: as §1

Daoy = conditions: Homo sapiens, Daoy, 72 h, cell count, 3 days
Description: as §1

ST486 = conditions: Homo sapiens, ST486, 72 h, cell count, 3 days
Description: as §1

NCI-H596 = conditions: Homo sapiens, NCI-H596, 72 h, cell count, 3 days
Description: as §1

SW684 = conditions: Homo sapiens, SW684, 72 h, cell count, 3 days
Description: as §1

LS513 = conditions: Homo sapiens, LS-513, 72 h, cell count, 3 days
Description: as §1

Hs 695T = conditions: Homo sapiens, Hs 695T, 72 h, cell count, 3 days
Description: as §1

CA46 = conditions: Homo sapiens, CA46, 72 h, cell count, 3 days
Description: as §1

D341 Med = conditions: D341 Med, 72 h, cell count, 3 days
Description: as §1

HCT-116 = conditions: Homo sapiens, HCT-116, 72 h, cell count, 3 days
Description: as §1

LS411N = conditions: Homo sapiens, LS-411N, 72 h, cell count, 3 days
Description: as §1

[1] = 50% of maximum possible response

## C[C@@H]1CC(=O)NN=C1c1ccc(NN=C(C#N)C#N)cc1 [levosimendan]
HT-3; [1]
  IC50: 91.3 µM
HT-3; corrected for time zero
  GI50: 48.5 µM
HT-3; curve inflection point
  EC50: 91.3 µM
CaOV3; [1]
  IC50: 37.4 µM
CaOV3; corrected for time zero
  GI50: 21.4 µM
CaOV3; curve inflection point
  EC50: 37.4 µM
NCI-H295R; [1]
  IC50: 91.6 µM
NCI-H295R; corrected for time zero
  GI50: 57.1 µM
NCI-H295R; curve inflection point
  EC50: 91.6 µM
SJSA1; [1]
  IC50: 41.9 µM
SJSA1; corrected for time zero
  GI50: 18.4 µM
SJSA1; curve inflection point
  EC50: 41.9 µM
Daoy; [1]
  IC50: 16.7 µM
Daoy; corrected for time zero
  GI50: 13 µM
Daoy; curve inflection point
  EC50: 16.7 µM
ST486; [1]
  IC50: 8.16 µM
ST486; corrected for time zero
  GI50: 6.04 µM
ST486; curve inflection point
  EC50: 8.16 µM
NCI-H596; [1]
  IC50: > 100 µM
NCI-H596; corrected for time zero
  GI50: > 100 µM
NCI-H596; curve inflection point
  EC50: 55.5 µM
SW684; [1]
  IC50: > 100 µM
SW684; corrected for time zero
  GI50: 17.1 µM
SW684; curve inflection point
  EC50: 21.1 µM
LS513; [1]
  IC50: 17.2 µM
LS513; corrected for time zero
  GI50: 14.7 µM
LS513; curve inflection point
  EC50: 17.2 µM
Hs 695T; [1]
  IC50: 44.9 µM
Hs 695T; corrected for time zero
  GI50: 15.2 µM
Hs 695T; curve inflection point
  EC50: 26.7 µM
CA46; [1]
  IC50: 13.2 µM
CA46; corrected for time zero
  GI50: 11 µM
CA46; curve inflection point
  EC50: 13.2 µM
D341 Med; [1]
  IC50: 73.8 µM
D341 Med; corrected for time zero
  GI50: 39.6 µM
D341 Med; curve inflection point
  EC50: 73.8 µM
HCT-116; [1]
  IC50: 8.39 µM
HCT-116; corrected for time zero
  GI50: 8.1 µM
HCT-116; curve inflection point
  EC50: 8.01 µM
LS411N; [1]
  IC50: > 100 µM
LS411N; corrected for time zero
  GI50: > 100 µM
LS411N; curve inflection point
  EC50: > 100 µM
